Test results from PubChem BioAssay (NCI).
Several values for one entry are separate records, joined by “and”; a condition that tells them apart may be missing. Equal entries are not always repeated.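 Values below derive from 48-hour exposures of cells grown in 96-well plates, with endpoints linearly interpolated between the two concentrations bracketing the appropriate inhibition level. Here, GI50 denotes the concentration required for 50% inhibition of growth. TGI is the concentration that stops growth completely.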 *1 amine or outer side, *2 acyl side, *3 side chain or, on linkers, in order; H or OH if unused. Where a SMILES comes first, the peptide text is derived from it. Bridges are numbered along the chain shown (N, C = ends). [ ]: non-standard residue; d: D form. The star is where a group is joined. Phe(3,5-F2) = N[C@@H](Cc1cc(F)cc(F)c1)C(=O)O; Pro(4R-Me) = C[C@H]1CN[C@H](C(=O)O)C1; aThr = C[C@H](O)[C@H](N)C(=O)O; Pip = O=C(O)[C@@H]1CCCCN1; X10 = Fc1cc(C2CC2)ccc1N*; CO = O=C([*:1])[*:2]

Tests used:
Test in all cases: inhibition of tumour cell growth, NCI panel, 48 h
[1] = system: HCT-15 colon
[2] = system: M14 melanoma
[3] = system: MALME-3M melanoma
[4] = system: NCI-H226 lung
[5] = system: NCI-H23 lung
[6] = system: OVCAR-4 ovarian
[7] = system: SNB-19 CNS
[8] = system: SNB-75 CNS
[9] = system: T-47D breast
[10] = system: HOP-62 NSCLC

Row | SMILES | TGI [1] | TGI [2] [µM] | TGI [3] | TGI [4] | TGI [5] | TGI [6] | TGI [7] | TGI [8] [µM] | TGI [9] | GI50 [1] | GI50 [10] | TGI [10] | GI50 [2] [µM] | GI50 [3] | GI50 [4] [µM] | GI50 [5] | GI50 [6] | GI50 [7] | GI50 [8] | GI50 [9] [µM]
1 | O=C1CC(NC(=O)C(F)(F)F)c2c(Br)sc(N3CCNCC3)c21 (configuration not stated) | > 100 µM | > 100 | > 100 µM | > 100 µM | > 100 µM | > 100 µM | > 100 µM | > 100 | > 100 µM |  |  |  |  |  |  |  |  |  |  | 
2 | Cc1ccc(CN2CCC(C(=O)Nc3ccc(-c4cc5ccccc5[nH]4)cc3)CC2)o1 | > 100 µM | > 100 | > 100 µM | > 100 µM | > 100 µM | > 100 µM | > 100 µM | 33.1 | > 100 µM | > 100 µM | 55.8 µM | > 100 µM | 66.1 | > 100 µM | > 100 | > 100 µM | 70.1 µM | > 100 µM | 12.7 µM | > 100
3 | NS(=O)(=O)c1ccc2c(c1)OCCOCCOCCOCCO2 | > 100 µM | > 100 | > 100 µM | > 100 µM | > 100 µM |  | > 100 µM | > 100 | > 100 µM |  |  | > 100 µM |  |  |  |  |  |  |  | 
4 | C[C@@H]1C[C@H]2C(=O)O[C@@H](C)[C@H](NC(=O)[C@H](Cc3cc(F)cc(F)c3)NC(=O)Nc3ccc(C4CC4)cc3F)C(=O)N3CCC[C@H]3C(=O)N3CCCC[C@H]3C(=O)N[C@@H](C)C(=O)N2C1 ({X10-CO}-[Phe(3,5-F2)][aThr]P[Pip]A[Pro(4R-Me)]; ester 2-C) | 5.28 µM | 2.41 | 5.9 µM | 4.35 µM | 35.3 µM | 3.84 µM | > 46.9 µM | 49.9 | > 22.1 µM | 0.0796 µM | 0.0542 µM | > 48.2 µM | 0.0436 | 0.0635 µM | 0.0524 | 0.0522 µM | 0.033 µM | 0.0404 µM | 0.0485 µM | 0.0448
5 | NC(N)=NS(=O)(=O)c1ccc(Nc2c3ccccc3nc3c(C(=O)NCCO)cccc23)cc1 |  |  |  | 0.322 µM |  |  |  | 55.2 |  | 32.2 µM | 20 µM |  | 26.3 | 16.7 µM |  | 26.3 µM | 25.3 µM | 26.6 µM |  | 11
6 | C[C@@H](Oc1cc(-n2cnc3ccc(CN4CCN(C)CC4)cc32)sc1C(N)=O)c1ccccc1C(F)(F)F | 12.9 µM and > 10 µM | 2.31 | 7.62 µM and > 6.99 µM | 19 µM and > 10 µM | 13.2 µM and > 10 µM | 17.5 µM and > 10 µM | 15.4 µM and > 10 µM |  | 21.4 µM and > 10 µM | 0.045 µM and 0.0432 µM | 0.0118 µM and 0.0199 µM | 12.7 µM and > 10 µM | 0.0123 | 2.81 µM and 2.77 µM |  | < 0.0114 µM and 0.0145 µM | 0.817 µM and 0.98 µM | 0.0233 µM and 0.0162 µM | 0.0363 µM and 0.0249 µM | 3.35
7 | Cc1cc(-c2nc(C(=O)Nc3cc4oc(N5CCOCC5)nc4nc3N3CC[C@@H](O)C3)co2)ccn1 | > 100 µM | > 100 | > 100 µM | > 100 µM | > 100 µM | > 100 µM | > 100 µM | 69.2 | > 100 µM | 25.7 µM | 30.6 µM | > 100 µM | 35.9 | 29.1 µM | > 100 | 28.1 µM | 32.1 µM | 78.8 µM | 9.41 µM | 22.1
8 | O=[N+]([O-])c1ccc2c(c1)/C(=N/N=C1c3ccccc3Cc3ccccc31)c1cc([N+](=O)[O-])cc([N+](=O)[O-])c1-2 | 4.99 µM | 6.28 | 6.46 µM | 31.5 µM | 3.85 µM | 3.13 µM | 23.3 µM | 9.28 | 3.49 µM |  |  | 7.01 µM |  |  |  |  |  |  |  | 
9 | Fc1[nH]nc2ccc([C@@H]3Nc4ccc5[nH]ncc5c4[C@H]4C5CCC(C5)[C@@H]34)cc12 (some centres not stated) | 13.1 µM | 11.7 | 26 µM | 25.9 µM | 15.9 µM | 17.8 µM | 18.1 µM | 3.93 | 12.9 µM | 0.495 µM | 0.747 µM | 13.8 µM | 0.514 | 11.6 µM | 3.54 | 2.8 µM | 4.51 µM | 1.22 µM | 0.503 µM | 0.436
10 | OC1CSSC1Cn1cnc2c(Nc3ccc(OCc4cccc(F)c4)c(Cl)c3)ncnc21 (configuration not stated) | 2.16 µM | 0.288 | 10.6 µM | 12.8 µM | 1.73 µM | 8.53 µM | 7.22 µM | 8.8 | 8.4 µM | 0.767 µM | 0.94 µM | 2.79 µM | 0.0912 | 2.52 µM | 3.38 | 0.689 µM | 1.27 µM | 2.14 µM | 4.16 µM | 1.3
11 | CCN(CC)N=Nc1c(C(N)=O)n[nH]c1C | > 100 µM | > 100 | > 100 µM | > 100 µM | > 100 µM | > 100 µM | > 100 µM | > 100 | > 100 µM |  |  | > 100 µM |  |  |  |  |  |  |  | 
12 | COc1cccc(C2c3cc4c(cc3OC(C)(N3CCCC3)C2C)OCO4)c1O (configuration not stated) | 29 µM | 14 | 42.3 µM | 19.9 µM | 8.9 µM | > 100 µM | > 100 µM | 17.2 | > 100 µM |  |  | 31.6 µM |  |  |  |  |  |  |  | 
13 | CN1CCN(C2=NCCO2)CC1 | > 100 µM | > 100 | > 100 µM | > 100 µM | > 100 µM | > 100 µM | > 100 µM | > 100 | > 100 µM |  |  | > 100 µM |  |  |  |  |  |  |  | 
14 | CCOC(=O)/C=C/CC(C)(C)CCOC(C)=O | > 10 µM | > 10 |  | > 10 µM | > 10 µM | > 10 µM | > 10 µM | > 10 | > 10 µM |  |  | > 10 µM |  |  |  |  |  |  |  | 
15 | C[N+](C)(C)CC(=O)N/N=C(/CC(=O)CC(C1=C(O)c2ccccc2OC1)c1ccccc1)C(=O)Nc1cccc(Cl)c1 (configuration not stated) | > 100 µM | > 100 |  | > 100 µM | > 100 µM | > 100 µM |  | > 100 | > 100 µM |  |  | > 100 µM |  |  |  |  |  |  |  | 
16 | O=C(CCNC12CC3CC(CC(C3)C1)C2)c1ccccc1 | 40.2 µM | 37.1 | 32.1 µM | > 100 µM | 48.8 µM | > 100 µM | > 100 µM | 65.3 | 55.4 µM |  |  |  |  |  |  |  |  |  |  | 
